Reference: US12577201B2, “Glutamine analogs” (Jacobio Pharmaceuticals Co., Ltd., priority 2020, dated 2026)

Experiments:
[1] = Stability in liver microsomes, mouse; format: in vitro ADME; details: 60 minutes, read-out: In vitro Clint
Method: (§1) For metabolic stability, microsomes from human, monkey, dog, rat and mouse were used. For stability, prodrugs (1 μM) were spiked in each microsomes matrix and incubated in an orbital shaker at 37° C. Aliquots of 50 μL were taken from the reaction solution at 0, 15, 30, 45 and 60 min. The reaction was stopped by the addition of 4 volumes of cold acetonitrile with IS (100 nM alprazolam, 200 nM labetalol, 200 nM caffeine and 2 μM ketoprofen). Samples were centrifuged at 3, 220 g for 40 minutes. Aliquot of 100 μL of the supernatant was mixed with 100 μL of ultra-pure H2O and then used for LC-MS/MS analysis.
(§2) For LC-MS/MS, prodrugs were analyzed on an API 4000 instrument from AB Inc (Canada) with an ESI interface coupled to Shimadzu LC system on an Waters XSelect HSS T3 C18, 2.5 m, 2.1×30 mm column.
(§3) For data analysis, peak areas were determined from extracted ion chromatograms. The slope value, k, was determined by linear regression of the natural logarithm of the remaining percentage of the parent drug vs. incubation time curve. The in vitro half-life (in vitro t1/2) was determined from the slope value: in vitro t1/2=−(0.693/k)
(§4) Conversion of the in vitro t1/2 (min) into the in vitro intrinsic clearance (in vitro CLint, in μL/min/mg protein) was done using the following equation (mean of duplicate determinations): […]

[2] = Plasma stability, swine plasma; details: 1 μM, 37° C., 4 hours
Method: (§5) For metabolic stability, plasma from dog, monkey, swine and human were used. For stability, prodrugs (1 μM) were spiked in respective solutions and incubated in an orbital shaker at 37° C. 50 μL aliquots of the mixture in duplicate were removed, and the reaction quenched by addition of four times the volume of ice cold acetonitrile spiked with the internal standard (Dexamethasone 100 ng/mL). […] 100 μL of the supernatant was diluted with 100 μL of water and transferred to the 0.6 mL plastic tubes on 96-well plate. Prodrug disappearance was monitored over time using a liquid chromatography and tandem mass spectrometry (LC-MS/MS).
(§6) For LC-MS/MS, prodrugs were analyzed on a ExionLC AD HPLC system coupled to REF Triple Quad 5500+ mass spectrometer with an ESI interface on an Phenomenex Kinetex 5 m C18 100A (2.1*50) mm UPLC column. The autosampler was temperature controlled and was operated at 4° C. The mobile phase used for the chromatographic separation was composed of acetonitrile/water containing 0.10% formic acid and will run at a flow rate of 0.6 mL/min for 3.5 min using gradient elution. The column effluent was monitored using […], equipped with an electrospray probe set in the positive ionization mode. Samples were introduced into the ionization source through a heated nebulized probe (400° C.). Disappearance of prodrugs will be measured from ratio of peak areas of analyte to IS.
(§7) For quantification of compound remaining, disappearance of prodrugs was measured from ratio of peak areas of analyte to IS.

[3] = Plasma stability, dog plasma; format: in vitro ADME; details: 1 μM, 37° C., 4 hours
Method: For metabolic stability, plasma from dog, monkey, swine and human were used. For stability, prodrugs (1 μM) were spiked in respective solutions and incubated in an orbital shaker at 37° C. 50 μL aliquots of the mixture in duplicate were removed, and the reaction quenched by addition of four times the volume of ice cold acetonitrile spiked with the internal standard (Dexamethasone 100 ng/mL). The samples were vortexed for 30 s and centrifuged at 15000 g for 5 min. 100 μL of the supernatant was diluted with 100 μL of water and transferred to the 0.6 mL plastic tubes on 96-well plate. Prodrug disappearance was monitored over time using a liquid chromatography and tandem mass spectrometry (LC-MS/MS).
as §6, §7

[4] = Plasma stability, human plasma; details: 1 μM, 37° C., 4 hours
Method: as §5, §6, §7

[5] = Stability in liver microsomes, rat; format: in vitro ADME; details: 60 minutes, read-out: In vitro Clint
Method: as §1, §2, §3, §4

[6] = Body weight of C57BL/6 mice bearing MC38 tumors (Example 11); format: in vivo, Mus musculus; details: C57BL/6, MC38, 2 μmol/kg S.C. QD; for BW Change (%): D6 to D20
Method: The treatments were started when the mean tumor size reached 82-129 mm^3 (average tumor size 102 mm^3). Each group contained 6 tumor bearing mice. Group 1 was treated with Vehicle (10% DMSO+90% Saline), S.C., QD. Group 2 was given treatments with compound 2 at 2 μmol/kg, S.C., QD. Group 3 was given treatments with compound 81 at 2 μmol/kg, S.C., QD. Group 4 was given treatments with compound 443 at 2 μmol/kg, S.C., QD. Group 5 was given treatments with compound 459 at 2 μmol/kg, S.C., QD. Group 6 was given treatments with compound 3 at 2 μmol/kg, S.C., QD.
(§8) In vivo efficacy was examined according to absolute tumor growth inhibition (TGI) and the safety was evaluated according to weight change and survival in mice.

[7] = Plasma stability, monkey plasma; details: 1 μM, 37° C., 4 hours
Method: as §5, §6, §7

[8] = Stability in liver microsomes, dog; format: in vitro ADME; details: 60 minutes, read-out: In vitro Clint
Method: as §1, §2, §3, §4

[9] = Stability in liver microsomes, monkey; format: in vitro ADME; details: 60 minutes, read-out: In vitro Clint
Method: as §1, §2, §3, §4

[10] = Stability in liver microsomes, human; format: in vitro ADME; details: 60 minutes, read-out: In vitro Clint
Method: as §1, §2, §3, §4

[11] = system: MC38 tumor cells; experiment: Anti-tumor efficacy in MC38 model in C57BL/6 mouse (Example 11); format: in vivo; details: C57BL/6, MC38, 2 μmol/kg S.C. QD; for T/C (%) / TGI (%) / TV (mm^3) (Mean ± SEM) D6 / TV (mm^3) (Mean ± SEM) D10 / TV (mm^3) (Mean ± SEM) D13 / TV (mm^3) (Mean ± SEM) D17 / TV (mm^3) (Mean ± SEM) D20: Example 11; for TV (mm^3) at D21 (Mean ± SEM): Table 13
Method: Animal species: Mus musculus; Strain: C57BL/6; Age: 6-8 weeks; Sex: female. The MC38 tumor cells were maintained in vitro in DMEM medium supplemented with 10% FBS at 37° C., 5% CO2. The cells growing in an exponential growth phase were harvested and counted for tumor inoculation. The culture MC38 were harvested, re-suspended in PBS containing 50% Matrigel at a density of 1×10^7 cells/mL. Each mouse was inoculated subcutaneously in the right flank region with 1×10^6 cells in 0.1 mL of PBS containing 50% Matrigel for tumor development.
The treatments were started when the mean tumor size reached 82-129 mm^3 (average tumor size 102 mm^3). Each group contained 6 tumor bearing mice. Group 1 was treated with Vehicle (10% DMSO+90% Saline), S.C., QD.
as §8
Statistical analysis of difference in tumor volume among the groups was performed using one-way ANOVA followed by individual comparisons using Games-Howell post-hoc test (equal variance not assumed). All data was analyzed using SPSS 22.0 software.

SMILES | microsomal CLint at 1 μM [1] [µL/min/mg] | plasma stability (compound remaining) [2] | plasma stability (compound remaining) [3] | plasma stability (compound remaining) [4] | microsomal CLint at 1 μM [5] [µL/min/mg] | BW(g) (Mean ± SEM) Beginning (D6) [6] | BW Change (%) [6] | BW(g) (Mean ± SEM) End (D20) [6] | plasma stability (compound remaining) [7] | microsomal CLint at 1 μM [8] [µL/min/mg] | microsomal CLint at 1 μM [9] [µL/min/mg] | microsomal CLint at 1 μM [10] [µL/min/mg] | T/C (%) [11] [%] | TGI (%) [11] [%] | TV (mm^3) (Mean ± SEM) D6 [11] | TV (mm^3) (Mean ± SEM) D10 [11] | TV (mm^3) (Mean ± SEM) D13 [11] | TV (mm^3) (Mean ± SEM) D17 [11] | TV (mm^3) (Mean ± SEM) D20 [11] | TV (mm^3) at D21 (Mean ± SEM) [11] [mm^3]
CO[C@@H](C)C(=O)N[C@@H](CCC(=O)C=[N+]=[N-])C(=O)SC(C)C [Compound 459, S-isopropyl (S)-6-diazo-2-((S)-2-methoxypropanamido)-5-oxohexanethioate] | 71.7 | substantially intact | substantially intact | substantially intact | 115 | 19.9 ± 0.3 | +6.3% | 21.1 ± 0.5 | substantially intact | 9.57 | 130 | 18.9 | 11.8 | 88.2 | 102 ± 5 | 148 ± 22 | 183 ± 30 | 281 ± 65 | 275 ± 59 | 275 ± 59
CO[C@@H](CCSC)C(=O)N[C@@H](CCC(=O)C=[N+]=[N-])C(=O)OC(C)C [Compound 443, isopropyl (S)-6-diazo-2-((S)-2-methoxy-4-(methylthio)butanamido)-5-oxohexanoate] | 408 | substantially intact | substantially intact | substantially intact | 239 | 19.9 ± 0.6 | +11.9% | 22.3 ± 0.5 | substantially intact | 81.9 | 180 | 73.5 | 21.5 | 78.5 | 102 ± 6 | 152 ± 25 | 267 ± 65 | 384 ± 95 | 500 ± 119 | 500 ± 119
